According to patent publication US20090148850A1, “Methods for identifying modulators of P2RY14” (priority 2007, published 2009):

Experiments:
P2RY14 [1] = target: T1, P2RY14 (Homo sapiens, UniProt Q15391); parameters: host or cells: yeast and HEK-293 cells (Chambers et al., J. Biol. Chem. 275: 10767-10771 (2000)); conditions: yeast and mammalian cells, Chambers et al. 2000; cited from earlier work
T1 sequence (Q15391 1-338): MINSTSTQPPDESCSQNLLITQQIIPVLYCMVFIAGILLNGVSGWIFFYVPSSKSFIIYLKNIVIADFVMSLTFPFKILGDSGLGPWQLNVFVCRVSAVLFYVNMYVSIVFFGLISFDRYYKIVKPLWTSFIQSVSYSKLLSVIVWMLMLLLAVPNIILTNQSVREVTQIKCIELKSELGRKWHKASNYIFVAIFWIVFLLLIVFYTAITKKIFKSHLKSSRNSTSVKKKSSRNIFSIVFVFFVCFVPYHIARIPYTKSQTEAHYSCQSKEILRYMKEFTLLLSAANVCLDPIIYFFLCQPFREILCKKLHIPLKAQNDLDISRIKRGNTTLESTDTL

[2] = test system: simian (chimpanzee) P2RY14; assay: CellKey System live cell functional assay, simian P2RY14; type: cell-based; conditions: HEK cells expressing simian P2RY14 and Gqi5
Procedure: (§1) The Cellkey System™ (MDS Sciex), a novel, live cell, label-free, real-time technology, was used to examine P2RY14 activation following agonist stimulation. The CellKey System™ is based on cellular dielectric spectroscopy (CDS) and monitors changes in impedance of the applied electrical current through the cell monolayer upon receptor activation.
(§2) On the following day, growth medium was removed from the cell monolayer and replaced with 135 μl of HBSS pH 7.4 containing 20 mM Hepes for a 30 minutes pre-incubation period at room temperature. Baseline measurements were made for 5 minutes at 28° C. prior to ligand addition. For agonist assays, 15 μl of 10× agonist diluted in HBSS pH 7.4 containing 20 mM HEPES was added to the cell monolayer simultaneously using the 96 multichannel head from the CellKey™ System. Cellular response was monitored for 10 minutes to assess cellular response after ligand addition.

P2RY14 [3] = target: T1, P2RY14; assay: CellKey System live cell functional assay, human P2RY14; type: cell-based; parameters: expressed in transfected cells; conditions: HEK cells expressing human P2RY14 and Gqi5
Procedure: as §1, §2

P2RY14 [4] = target: T1, P2RY14; assay: FLIPR whole cell Ca2+ agonist assay, HEK cells expressing human P2RY14 and Gqi5; type: cell-based; parameters: expressed in transfected cells; conditions: for activation of P2RY14 (Ca2+ signaling): HEK cells expressing human P2RY14 and Gqi5, FLIPR
Source text: (§3) Stable HEK clonal cell lines expressing P2RY14 and the chimeric G protein Gqi5 were constructed. The chimeric Gqi5 forces the coupling of P2RY14 through the Gq (calcium) pathway and allows for monitoring of calcium signaling using a calcium binding fluorescent dye and a FLIPR (fluorometric imaging plate reader, MDS Sciex). Vector pCEP4 comprising the chimeric Gqi5 was obtained from Molecular Devices, Sunnyvale, Calif. (Cat. No. RD-PGQI5).
The human P2RY14 was PCR amplified from the I.M.A.G.E. clone obtained from Invitrogen, Carlsbad, Calif. […] The codon encoding glutamate at position 54 in the wild-type human P2RY14 was changed to code for lysine. […] The PCR reaction was done in two parts. In the first part, the reaction was 5 cycles at 94° C. for 30 seconds, 65° C. for 30 seconds, and 72° C. for 90 seconds. In the second part, the reaction was 25 cycles at 94° C. for 30 seconds, 70° C. for 30 seconds, 72° C. for 90 seconds. The last cycle was followed by 7 minutes at 72° C. The PCR amplified human P2RY14 was digested with KpnI and NotI and cloned into a pcDNA3.1 (+) vector previously digested with KpnI and NotI to place the DNA fragment in the proper orientation downstream of the CMV promoter. The nucleic acid encoding the human P2RY14 was under the control of the CMV promoter.
(§4) Cells were grown in DMEM medium containing 25 mM HEPES, pH 7.4 and 10% FBS, 50 units/ml penicillin/50 μg/ml streptomycin, 2 mM glutamine and 1 mM sodium pyruvate at 37° C. in humidified air containing 5% CO2. Two days post-transfection, cells were grown under selection in the DMEM medium as indicated above and supplemented with 200 μg/ml Hygromycin B and 250 μg/ml geneticin.
(§5) Cells were incubated overnight at 37° C. and 5% CO2 to form a monolayer. On the following day, 30 μl of fluorescent no-wash dye was added to the cell monolayer and the plate was incubated for 60 minutes at 37° C., 5% CO2.
(§6) For agonist assays, 6.12 μl of 10× agonist solution was added to the cell/dye incubation and Ca^2+ signaling was monitored by FLIPR. For antagonist assays, 250 nl of compound in 100% DMSO was added to cell/dye mixture; following a 20 minute incubation at room temperature, 6.12 μl of 10× agonist solution at EC80 in HBSS containing 20 mM Hepes was added to cells and Ca^2+ signaling was monitored by FLIPR. Quantitation of the % stimulation or inhibition of Ca^2+ signaling by agonist or antagonist, respectively, was calculated using the Max-Min fluorescent signal detected.

mouse P2RY14 [5] = target: T2, mouse P2RY14 (Mus musculus, UniProt Q9ESG6); assay: CellKey System live cell functional assay, mouse P2RY14; type: cell-based; conditions: HEK cells expressing mouse P2RY14 and Gqi5
T2 construct: expressed in transfected cells
T2 sequence (Q9ESG6 1-338): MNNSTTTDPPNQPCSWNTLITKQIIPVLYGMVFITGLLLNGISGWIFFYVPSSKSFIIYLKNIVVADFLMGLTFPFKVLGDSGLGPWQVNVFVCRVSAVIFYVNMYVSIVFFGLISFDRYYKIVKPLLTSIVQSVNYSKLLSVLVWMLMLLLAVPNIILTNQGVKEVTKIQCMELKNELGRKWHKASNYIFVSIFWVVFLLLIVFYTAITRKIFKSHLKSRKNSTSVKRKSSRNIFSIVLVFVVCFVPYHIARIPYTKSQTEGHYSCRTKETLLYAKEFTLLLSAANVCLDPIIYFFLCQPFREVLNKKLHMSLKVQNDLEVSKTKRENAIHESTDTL
Procedure: as §1, §2

[6] = test system: simian (chimpanzee) P2RY14; assay: FLIPR whole cell Ca2+ agonist assay, HEK cells expressing simian (chimpanzee) P2RY14 and Gqi5; type: cell-based
Source text: as §3
The simian (chimpanzee) P2RY14 nucleic acid fragment was synthesized based upon the Ensembl Gene ID ENSPTRG00000030093 by Bio S & T, Montreal, Quebec, Canada, to be flanked with KpnI and NotI restriction enzyme sites. […] The DNA fragment was digested with KpnI and NotI and then cloned into a pcDEF3 vector previously digested with KpnI and NotI to place the DNA fragment in the proper orientation downstream of the human EF-1a promoter. The nucleic acid encoding the simian P2RY14 was under the control of the human EF-1a promoter.
as §4, §5, §6

mouse P2RY14 [7] = target: T2, mouse P2RY14; assay: FLIPR whole cell Ca2+ agonist assay, HEK cells expressing mouse P2RY14 and Gqi5; type: cell-based
Source text: as §3
The nucleic acid encoding the mouse P2RY14 was under the control of the CMV promoter.
as §4, §5, §6

[8] = test system: HEK cells not expressing P2RY14; assay: FLIPR Ca2+ release in HEK cells not expressing P2RY14 (specificity); type: cell-based
simian P2RY14 = assay: Membrane filtration binding assay, simian P2RY14; parameters: species or system chimpanzee; conditions: HEK cells expressing simian P2RY14, membrane filtration
Procedure: Membrane preparations were made by N2 cavitation using a Parr unit. […] Cell were Dounce homogenized (size B, 10 strokes) and then added to the cavitation unit. Pressure was adjusted to 800 psi and cells were left under pressure for 30 minutes. Broken cells were released drop by drop and spun at 1000 g for 10 minutes. Supernatent was spun at 160,000 g (rotor type 60 Ti, 40000 rpm for 30 min). Pellet was resuspended in 10 mM HEPES/KOH pH 7.4, 1 mM EDTA in ⅕ the original volume, dounce homogenized (size A, 10 strokes), aliquoted, and frozen at −80° C.
Binding assays were performed in 10 mM Hepes pH 7.4 (KOH), 5 mM MnCl2, 5 mM MgCl2 buffer. Membranes (10 μg/well for human P2RY14 and 30 μg/well for simian P2RY14) were incubated with 10 nM [5.6-^3H] Uridine 5′-triphosphate (UTP), ammonium salt from Amersham Biosciences (# TRK412) in presence of compounds diluted in DMSO (2% final in assay), in a total volume of 100 μl. 50 minutes (human P2RY14) or 60 minutes (simian) P2RY14) incubations were performed at room temperature with shaking. […] To examine the stability of [^3H]-UTP in the membrane filtration binding assay, 100 ul aliquots of the reaction mixture were extracted at 2, 10, 20, 40, 60 and 90 minutes with 100 uL of cold 80 mM EDTA solution (pH 8) and 200 uL of cold Acetonitrile. After mixing, proteins were precipitated by centrifugation at 13000 rpm for 10 minutes at 4° C. […] After 0.5 min at 10:90 50 mM KH2PO4/750 mM KH2PO4, a gradient was applied in order to increase to 100% 750 mM KH2PO4 at 5 min, after which this composition was maintained for an additional 3 min. Samples were kept at 4° C. prior to HPLC analysis

Ca2+ response as compared to UDP-glucose and UMP (P2RY14 [4]; HEK cells expressing human P2RY14) | Compound | activation of P2RY14 (P2RY14 [1]) | P2RY14 signaling (impedance, CellKey) [2] | P2RY14 signaling (impedance, CellKey) (P2RY14 [3]) | activation of P2RY14 (Ca2+ signaling) (P2RY14 [4]) | P2RY14 signaling (impedance, CellKey) (mouse P2RY14 [5]) | activation of P2RY14 (Ca2+ signaling) [6] | activation of P2RY14 (Ca2+ signaling) (mouse P2RY14 [7]) | Ca2+ release in cells not expressing P2RY14 [8] | specific binding window as radioligand (simian P2RY14)
 | Nc1ncnc2c1ncn2[C@@H]1O[C@H](COP(=O)(O)OP(=O)(O)O[C@H]2O[C@H](CO)[C@@H](O)[C@H](O)[C@H]2O)[C@@H](O)[C@H]1O [ADP-glucose] | unable to activate |  |  |  |  |  |  |  | 
 | CC(=O)N[C@H]1[C@@H](OP(=O)(O)OP(=O)(O)OC[C@H]2O[C@@H](n3ccc(=O)[nH]c3=O)[C@H](O)[C@@H]2O)O[C@H](CO)[C@@H](O)[C@@H]1O [UDP-N-acetylglucosamine] | able to activate | mediated signaling | mediated signaling | activated | mediated signaling | activated | activated |  | 
 | O=C(O)[C@H]1O[C@H](OP(=O)(O)OP(=O)(O)OC[C@H]2O[C@@H](n3ccc(=O)[nH]c3=O)[C@H](O)[C@@H]2O)[C@H](O)[C@@H](O)[C@@H]1O [UDP-glucuronic acid] | able to activate | mediated signaling | mediated signaling | activated | mediated signaling | activated | activated |  | 
much larger Ca^2+ response | O=c1ccn([C@@H]2O[C@H](COP(=O)(O)OP(=O)(O)OP(=O)(O)O)[C@@H](O)[C@H]2O)c(=O)[nH]1 [UTP, Uridine 5′-triphosphate] | unable to activate | mediated signaling | mediated signaling | activated | mediated signaling | activated | activated | able to stimulate Ca^2+ release in a dose-dependent manner | 
 | O=P(O)(O)OP(=O)(O)OC[C@H]1O[C@@H](n2cnc3c(O)ncnc32)[C@H](O)[C@@H]1O [inosine diphosphate] |  |  |  | activated |  | activated | activated |  | 
 | [^3H]-UMP |  |  |  |  |  |  |  |  | no specific binding window
